One test addresses Fasciola hepatica TIM (FhTIM) (Fasciola hepatica, UniProt S4UI50). The test is described as follows: Inhibition of recombinant FhTIM, coupled enzyme assay. Type of test: biochemical.
Conditions: not given
The procedure:
Expression and purification of proteins: FhTIM, RabbitTIM and HsTIM were expressed in Escherichia coli and purified as described in the literature[31],[37]. […] Before use, extensive dialysis against 100 mM triethanolamine/10 mM EDTA (pH 7.4) was performed. […] Enzymatic activity was determined following the conversion of glyceraldehydes-3-phosphate into dihydroxyacetone phosphate in a coupled enzyme assay. The decrease in absorbance at 340 nm was followed in a multiplate reader VarioskanTM Flash Multimode Reader (Thermo ScientificTM, Waltham, MA, USA) at 38 °C. The reaction mixture (1 mL, pH 7.4) contained 100 mM triethanolamine, 10 mM EDTA, 0.2 mM NADH, 1 mM glyceraldehydes-3-phosphate and 0.9 units of α-glycerol phosphate dehydrogenase. The reaction was initiated by the addition of 5 ng/mL of the TIM of interest. For the inhibition studies, TIM was incubated at a concentration of 5 mg/mL in a buffer containing 100 mM triethanolamine, 10 mM EDTA, pH 7.4 and 10% of DMSO at 37 °C for 1 h. The mixture also contained the compounds, dissolved in DMSO, at the indicated concentrations. After 1 h, 10 µL were withdrawn and added to a final volume of 100 µL of the reaction mixture for the activity assay. The inhibition assay was performed in a 96-well microplate. […] The experiments were performed in triplicate in two independent experiments.
Chain of Fasciola hepatica TIM (FhTIM) (S4UI50 entry or part of it): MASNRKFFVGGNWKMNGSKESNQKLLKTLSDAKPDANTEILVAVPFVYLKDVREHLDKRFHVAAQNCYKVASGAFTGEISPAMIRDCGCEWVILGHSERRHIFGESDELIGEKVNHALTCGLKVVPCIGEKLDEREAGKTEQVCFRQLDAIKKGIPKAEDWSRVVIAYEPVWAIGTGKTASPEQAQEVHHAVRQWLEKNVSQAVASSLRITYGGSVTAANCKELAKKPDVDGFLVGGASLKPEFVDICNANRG
With `Cc1ccc(-c2nsc(=O)[nH]2)cc1` [Compound 191], the “FhTIM inhibition in words” value is “non-inhibitor”.

The test is the same for the next values; noted with them: Figure 1, ranges of inhibitory activity; read-out: IC50 range.
In the case of `O=C1C(=Cc2ccc([N+](=O)[O-])cc2)C(=O)N(Cc2ccccc2)S(=O)(=O)N1Cc1ccccc1` [Compound 111], the IC50 is below 50 µM.
On the same count and under the same terms, in the case of `[O-][n+]1c2ccc(O)cc2[n+]([O-])c2cc(Cl)c(Cl)cc21` [Compound 183] it was below 50 µM.

The same test, now with this note: Table 1S, screening of 340 compounds in FhTIM; table head prints no unit, µM per b8/b9; read-out: IC50.
In the case of `O=C(O)c1ccc(C=CCN2C(=O)c3ccccc3C2=O)cc1` (mixture of isomers) [Compound 617], the IC50 is above 100 µM.
On the same count and under the same terms, in the case of `[O-][n+]1onc2ccc(C=Cc3ccc4nonc4c3)cc21` [Compound 12] it was above 100 µM.
On the same count and under the same terms, the value for `COC(=O)NN=Cc1ccc2nonc2c1` [Compound 31] was above 100 µM; that for `O=Cc1ccc2no[n+]([O-])c2c1` [Compound 38] was above 100 µM; that for `[O-][n+]1onc2ccc(C=NNC(=S)Nc3ccccc3)cc21` [Compound 41] was above 100 µM.
On the same count and under the same terms, in the case of `O=C(/C=C/c1ccco1)N1CCN(C/C=C/c2ccccc2)CC1` [Compound 50] it was above 100 µM.
As for `O=C(/C=C/c1ccc([N+](=O)[O-])o1)N1CCN(C/C=C/c2ccccc2)CC1` [Compound 51], the IC50 was above 100 µM.
On the same count and under the same terms, the value for `O=[N+]([O-])c1ccc(C=CC=NNC(=S)Nc2ccccc2)o1` [Compound 54] was above 100 µM; that for `COCCNC(=O)/C=C/c1ccc([N+](=O)[O-])o1` [Compound 60] was above 100 µM.
As to `CCOC(=O)C=Cc1ccc([N+](=O)[O-])o1` [Compound 66], the IC50 was above 100 µM.
The same measure, in the same setting: in the case of `C=CCNC(=S)NN=Cc1ccco1` [Compound 69] it was above 100 µM; in that of `CC1(C)[N+]([O-])=c2ccc(C3OCCO3)cc2=[N+]1[O-]` [Compound 105], above 100 µM.
As for `Cc1ccc2c(c1)=[N+]([O-])C(C)(C)[N+]=2[O-]` [Compound 109], the IC50 is above 100 µM.
With `O=C1C(=Cc2ccc([N+](=O)[O-])cc2)C(=O)N(Cc2ccccc2)S(=O)(=O)N1Cc1ccccc1` [Compound 111], the IC50 is below 25 µM.
Still for that read-out and setting: the value for `O=C1C(=Cc2ccc([N+](=O)[O-])s2)C(=O)N(C2CCCCC2)S(=O)(=O)N1C1CCCCC1` [Compound 113] was above 100 µM; that for `NC1=NS(=O)(=O)N=C(N)C1=Cc1ccc([N+](=O)[O-])o1` [Compound 117] was above 100 µM.
For the compound `O=S(=O)(NC1CCCCC1)NC1CCCCC1` [Compound 118], the IC50 is above 100 µM.
The same measure, in the same setting: in the case of `O=S(=O)(NCc1ccccc1)NCc1ccccc1` [Compound 119] it was above 100 µM; in that of `O=S(=O)(NCCc1ccccc1)NCCc1ccccc1` [Compound 120], above 100 µM; in that of `CCCCNS(=O)(=O)NCCCC` [Compound 123], above 100 µM.
The same measure, in the same setting: in the case of `NS(=O)(=O)NCc1ccccc1` [Compound 124] it was above 100 µM.
Same read-out and setting: in the case of `CCN(CC)CCCNS(=O)(=O)NCCCN(CC)CC` [Compound 125] it was above 100 µM.
Take `NC1=NS(=O)(=O)N=C(N)C1` [Compound 126]: the IC50 came out at 100 µM.
The same measure, in the same setting: in the case of `O=C1CC(=O)N(CCc2ccccc2)S(=O)(=O)N1CCc1ccccc1` [Compound 127] it was above 100 µM; in that of `C=CCN1C(=O)CSC1=NN=Cc1ccc([N+](=O)[O-])s1` [Compound 129], above 100 µM.
Same read-out and setting: in the case of `CC(=O)N(C1=NN(C(C)=O)C(c2ccc([N+](=O)[O-])s2)S1)c1ccccc1` (stereo not shown) [Compound 130] it was above 100 µM.
On to `C=CCn1c(-c2ccc([N+](=O)[O-])cc2)csc1=NN=CC=Cc1ccc([N+](=O)[O-])s1` [Compound 131], for which the IC50 is above 100 µM.
On the same count and under the same terms, the value for `C=CCn1c(-c2ccc(OC)cc2)csc1=NN=Cc1ccc([N+](=O)[O-])s1` [Compound 132] was above 100 µM.
`C=CCNC(=S)NN=Cc1ccc([N+](=O)[O-])s1` [Compound 136]: the IC50 was above 100 µM.
The same measure, in the same setting: the value for `C=CCNC(=S)NN=CC=Cc1ccc([N+](=O)[O-])s1` [Compound 142] was above 100 µM; that for `C=CCn1c(C)csc1=NN=Cc1ccc([N+](=O)[O-])s1` [Compound 143] was 50 to 100 µM.
Still for that read-out and setting: the value for `C=CCn1c(-c2ccc(Cl)cc2)csc1=NN=Cc1ccc([N+](=O)[O-])s1` [Compound 145] was above 100 µM.
The same measure, in the same setting: the value for `C=CCn1c(-c2ccc([N+](=O)[O-])cc2)csc1=NN=Cc1ccc([N+](=O)[O-])s1` [Compound 146] was above 100 µM; that for `C=CCn1c(-c2ccccc2)csc1=NN=Cc1ccc([N+](=O)[O-])s1` [Compound 147] was above 100 µM; that for `O=c1cc(-c2ccccc2)oc2ccccc12` [Compound 148] was above 100 µM.
Regarding `Cc1c(C=NNC(N)=O)no[n+]1[O-]` [Compound 159], the IC50 was above 100 µM.
Same read-out and setting: in the case of `[O-][n+]1onc(-c2ccccc2)c1CNc1cccc2ccccc12` [Compound 169] it was above 100 µM; in that of `Cc1c(CNc2cccc3ccccc23)no[n+]1[O-]` [Compound 172], above 100 µM; in that of `Cc1c(CNc2ccc3ccccc3c2)no[n+]1[O-]` [Compound 173], 50 to 100 µM.
The same measure, in the same setting: the value for `COC(=O)NN=Cc1no[n+]([O-])c1C` [Compound 174] was above 100 µM; that for `CCCCNC(=O)NN=Cc1no[n+]([O-])c1C` [Compound 175] was above 100 µM.
For the compound `Nc1ccc2c(c1)[n+]([O-])c1cc(Cl)ccc1[n+]2[O-]` [Compound 184], the IC50 was above 100 µM.
Still for that read-out and setting: in the case of `Cc1ccc(-c2nsc(=O)[nH]2)cc1` [Compound 191] it was above 100 µM; in that of `COc1nn(CCOCCN2CCN(CC=Cc3ccccc3)CC2)c2ccc([N+](=O)[O-])cc12` [Compound 198], above 100 µM; in that of `CCCN(CCCCCn1nc(OCc2ccccc2)c2cc([N+](=O)[O-])ccc21)CCC(C)C1CC=C(C)CC1` (stereo not shown) [Compound 199], above 100 µM.
Consider `N#Cc1c2ccccc2[n+]([O-])n1-c1ccc2ccccc2c1` [Compound 202], for which the IC50 was above 100 µM.
Same read-out and setting: in the case of `Cc1nnc[n+]([O-])c1/C=C/c1ccc(Cl)cc1` [Compound 211] it was above 100 µM; in that of `Cc1nnc(C)[n+]([O-])c1C=Cc1ccc(N(C)C)cc1` [Compound 213], above 100 µM.
On to `Cc1c(C=Cc2ccc([N+](=O)[O-])s2)ncn[n+]1[O-]` [Compound 214], for which the IC50 is above 100 µM.
For the compound `Cc1nnc[n+]([O-])c1C=Cc1ccc2c(c1)OCO2` [Compound 216], the IC50 was above 100 µM.
Still for that read-out and setting: the value for `COc1ccc(C=Cc2c(C)[n+]([O-])nc[n+]2[O-])cc1` [Compound 218] was above 100 µM; that for `Cc1c(C=Cc2ccc(N(C)C)cc2)[n+]([O-])cn[n+]1[O-]` [Compound 219] was above 100 µM.
`COc1ccc(C=O)cc1-c1cc(C=O)ccc1OC` [Compound 237]: the IC50 was above 100 µM.
Still for that read-out and setting: in the case of `O=C1CSC(=NN=Cc2ccc([N+](=O)[O-])s2)N1` [Compound 258] it was above 100 µM; in that of `C=CCn1c(C)csc1=NN=CC=Cc1ccc([N+](=O)[O-])s1` [Compound 259], above 100 µM.
Same read-out and setting: the value for `C=CCN1C(=O)CSC1=NN=Cc1ccc(Cl)cc1` [Compound 260] was above 100 µM; that for `C=CCNC(=S)NN=Cc1ccc(Cl)cc1` [Compound 261] was above 100 µM; that for `O=C1CSC(=NN=Cc2ccc([N+](=O)[O-])s2)N1c1ccccc1` [Compound 262] was above 100 µM.
The same measure, in the same setting: in the case of `C=CCNC(=S)NN=CC=Cc1ccc(C)o1` [Compound 263] it was above 100 µM; in that of `C=CCN1C(=O)CSC1=NN=CC=Cc1ccco1` [Compound 264], above 100 µM.
In the case of `C=CCn1c(-c2ccc(Cl)cc2)csc1=NN=Cc1ccc(Cl)cc1` [Compound 265], the IC50 is above 100 µM.
The same measure, in the same setting: the value for `C=CCn1c(-c2ccc(Cl)cc2)csc1=NN=CC=Cc1ccco1` [Compound 266] was above 100 µM; that for `O=[N+]([O-])c1ccc(C=NN=c2[nH]c(-c3ccc(Cl)cc3)cs2)s1` [Compound 267] was above 100 µM.
On the same count and under the same terms, in the case of `O=[N+]([O-])c1ccc(C=NN=c2scc(-c3ccccc3)n2-c2ccccc2)s1` [Compound 268] it was above 100 µM.
Still for that read-out and setting: in the case of `C(=NN=c1scc(-c2ccccc2)n1-c1ccccc1)c1ccccc1` [Compound 270] it was above 100 µM; in that of `C=CCn1c(-c2ccccc2)csc1=NN=Cc1cccs1` [Compound 272], above 100 µM; in that of `C=CCN1C(=O)CSC1=NN=Cc1cccs1` [Compound 273], above 100 µM.
For the compound `C=CCn1c(C)csc1=NN=Cc1cccs1` [Compound 274], the IC50 fell in the range of 50 to 100 µM.
The same measure, in the same setting: in the case of `C=CCn1c(-c2ccccc2)csc1=NN=CC=Cc1ccco1` [Compound 276] it was above 100 µM.
Regarding `S=C(NN=C/C=C/c1ccco1)Nc1ccccc1` [Compound 277], the half-inhibitory concentration (IC50) was above 100 µM.
Still for that read-out and setting: in the case of `S=C(NN=Cc1ccccc1)Nc1ccccc1` [Compound 278] it was above 100 µM.
Still for that read-out and setting: in the case of `S=C(NN=Cc1cccs1)Nc1ccccc1` [Compound 279] it was above 100 µM; in that of `C=CCNC(=S)NN=Cc1ccc2c(c1)OCO2` [Compound 280], above 100 µM.
The same measure, in the same setting: the value for `C=CCNC(=S)NN=Cc1ccc(SC)cc1` [Compound 281] was above 100 µM.

The same test, now with this note: recombinant FhTIM, 1 h incubation with compound at 37 °C; read-out: IC50.
In the case of `CN(C)CCCNS(=O)(=O)NCCCN(C)C` [Compound 121], the IC50 was found to be 50 ± 9 µM.
The same measure, in the same setting: the value for `[O-][n+]1c2ccc(O)cc2[n+]([O-])c2cc(Cl)c(Cl)cc21` [Compound 183] was 25 ± 3 µM.

As a reminder, the IC50 is the point on the concentration scale where inhibition reaches its midpoint.

The values are drawn from paper PMC7018972, “Novel and selective inactivators of Triosephosphate isomerase with anti-trematode activity” (Scientific Reports, 2020).
